Assays:
[1] = system: CHO.DXB11 cells; assay: Media supplementation with fatty acids, methyl esters, sterols, glycerides and isoprenoids, mAb1 production; type: cell-based, Chinese hamster; details: supplement in ethanol fed daily per Table 5 (2.7-10.7 μM, ethanol 0.05% v/v) vs control
Experimental: (§1) Monoclonal antibodies 1 (mAb1) and 4 (mAb4) were produced using two separate cell lines according to methods described in the previous Examples. Titer, percent of high molecular weight and low molecular weight species, acidic and basic charge variants, and glycosylation species profiles were assessed as in the previous Examples.
(§2) Fatty acids were dissolved in ethanol and fed daily according to Table 5 using two different process strategies for mAb1 and mAb4. The mAb1 process strategy was maintained at 37° C. then shifted to 31° C. during late exponential phase, with the pH being maintained at 7.0±0.2 throughout the culture. The mAb4 process strategy was maintained at 36.5° C. then shifted to 33° C. during production phase, with the pH being shifted from 7.0±0.1 to 6.8±0.1 in the late exponential phase. Both process strategies were maintained at 30% air saturation

[2] = system: cell line producing mAb4; assay: Media supplementation with fatty acids, methyl esters, sterols, glycerides and isoprenoids, mAb4 production; type: cell-based; details: supplement in ethanol fed daily per Table 5 (5.0-20.0 μM, ethanol 0.09% v/v) vs control
Experimental: as §1, §2

[3] = system: CHO.DXB11 cells; assay: Oleic acid in bench-scale bioreactors, baseline with ethanol, mAb 1; type: cell-based, Chinese hamster; details: oleic acid 40 μM fed daily vs baseline w/ethanol, 14 day fed-batch
Text: Ethanol supplemented media was further supplemented with fatty acids to determine if fatty acids altered mAb properties. Feed media was fed daily in a fed-batch process using bench-scale (2 L working volume) bioreactors. […] Media used for baseline measurements contains ethanol but no fatty acids.

[4] = system: CHO.DXB11 cells; assay: Oleic acid in bench-scale bioreactors, baseline without fatty acids or ethanol, mAb 1; type: cell-based, Chinese hamster; details: oleic acid 40 μM + ethanol 0.057% v/v fed daily vs baseline without both, 14 day fed-batch
Text: Feed media was supplemented with fatty acids to determine if fatty acids altered mAb properties. Feed media was fed daily in a fed-batch process using bench-scale (2 L working volume) bioreactors.

[5] = system: CHO.DXB11 derived clone; assay: Sodium chloride supplementation, microscale bioreactors, mAb3; type: cell-based, Chinese hamster; details: sodium chloride 4.59 mM and 9.18 mM fed daily, 12 day fed-batch
Experimental: Monoclonal antibody 3 (mAb3) is a monoclonal antibody produced using recombinant DNA technology. The expression vector is fully synthetic with both heavy- and light-chain gene sequences regulated by strong constitutive promoters. Gene sequences were confirmed by DNA sequencing. The expression vector was linearized by restriction enzymes and stably transfected into CHO.DXB11 cells by electroporation. Gene amplification steps were performed with increasing concentrations of methotrexate. Single cell cloning was performed after gene amplification. Select single cell clones were expanded and cryopreserved. The cell line used was a CHO.DXB11 derived clone.
Sodium chloride was fed daily at 4.59 mM and 9.18 mM using two different process strategies. Process strategy 1 was maintained at 36.5° C. then shifted to 31° C. during production phase. Process strategy 2 was maintained at 36.5° C. then shifted to 31° C. during production phase then re-shifted back to 36.5° C. during late production phase. Both process strategies were maintained at 30% air saturation and a pH of 7.0±0.2. Other glycan species and HMW % and LMW % are not listed because no significant change in levels were observed from sodium chloride supplementation.

[6] = process strategies 1 and 2, mAb3

| Compound | Effect on G0F glycan species [1] | Effect on acidic charge variants [1] | Effect on low molecular weight species [1] | Effect on acidic charge variants [2] | Effect on relative percentage of G0 glycan species [2] | Effect on relative percentage of HMW species [2] | Effect on relative percentage of Man5 glycan species [2] | Effect on relative percentage of basic charge variants [2] | Effect on LMW species [2] | Effect on G0 glycan species [1] | further results |
| --- | --- | --- | --- | --- | --- | --- | --- | --- | --- | --- | --- |
| CCCCCCCC(=O)OCC(O)CO (racemic) [1-octanoyl-rac-glycerol] | decreased | decreased | decreased | decreased | decreased | decreased | decreased | decreased | – | – | Effect on titer [1]: increased; Effect on relative percentage of G0F glycan species [2]: decreased |
| CCCCC/C=C\C/C=C\CCCCCCCC(=O)O [linoleic acid] | – | decreased | decreased | decreased | decreased | – | decreased | – | decreased | – | Effect on titer [1]: increased |
| CCCCCCCCCCCCCCCCCC(=O)O [stearic acid] | – | – | decreased | decreased | – | – | – | – | – | Decreased | Effect on basic charge variants [1]: decreased |
| cholesteryl acetate | decreased | – | – | decreased | decreased | decreased | decreased | decreased | decreased | Decreased | Effect on Man5 glycan species [1]: Decreased |
| CCCCCCCCCCCCCCCC(=O)O [palmitic acid] | – | decreased | decreased | decreased | – | – | – | – | decreased | Decreased | Effect on basic charge variants [1]: decreased |
| CCCCCCCC/C=C\CCCCCCCC(=O)O [oleic acid] | decreased | decreased | – | decreased | decreased | – | decreased | – | – | Decreased | Effect on G0F glycan species [3]: increased; Effect on G0 glycan species [3]: decreased; Effect on G1F glycan species [3]: decreased; Effect on G2F glycan species [3]: decreased; Effect on Man5 glycan species [3]: decreased; Effect on acidic charge variants [3]: decreased; Effect on antibody titer [3]: decreased; Effect on basic charge variants [3]: increased; Effect on high molecular weight species [3]: increased; Effect on low molecular weight species [3]: increased; Effect on G0F glycan species [4]: decreased; Effect on G0 glycan species [4]: decreased; Effect on G1F glycan species [4]: increased; Effect on G2F glycan species [4]: increased; Effect on Man5 glycan species [4]: decreased; Effect on acidic charge variants [4]: decreased; Effect on high molecular weight species [4]: decreased; Effect on monoclonal antibody titer [4]: increased |
| [Cl-].[Na+] [sodium chloride] | – | – | – | – | – | – | – | – | – | – | Effect on HMW % ([5]; mAb3): did not change; Effect on LMW % ([5]; mAb3): did not change; Effect on G0F glycan species [5, 6]: decreased; Effect on G0 glycan species [5, 6]: increased; Effect on G1F glycan species [5, 6]: increased; Effect on G2F glycan species [5, 6]: increased; Effect on Man5 glycan species [5, 6]: increased; Effect on acidic charge variants [5, 6]: increased; Effect on basic charge variants [5, 6]: increased; Effect on monoclonal antibody titer [5, 6]: decreased; Effect on monoclonal antibody titer ([5]; process strategies 1 and 2, mAb3, listed as Sodium chloride): reduced |
| CCCCCCCC(=O)OC [methyl octanoate] | decreased | decreased | – | – | decreased | decreased | decreased | decreased | – | Decreased | – |
| CCCCCCCCCCCCCC(=O)O [myristic acid] | decreased | decreased | – | decreased | decreased | decreased | decreased | decreased | – | Decreased | – |
| Cc1ccc(C(C)C)c(O)c1 [thymol] | – | decreased | decreased | decreased | – | decreased | decreased | decreased | decreased | Decreased | Effect on titer [1]: increased |
| CC(C)CCC[C@@H](C)[C@H]1CC[C@H]2[C@@H]3CC=C4C[C@@H](O)CC[C@]4(C)[C@H]3CC[C@]12C [cholesterol] | – | – | – | – | decreased | – | decreased | decreased | – | Decreased | Effect on basic charge variants [1]: decreased |

— patent US10703800B2, “Cell culture medium” (La Jolla Biologics, Inc., priority 2016, dated 2020)
